Results from paper PMC9326216, “Treatment of Cardiovascular Dysfunction with PDE3-Inhibitors in Moderate and Severe Hypothermia—Effects on Cellular Elimination of Cyclic Adenosine Monophosphate and Cyclic Guanosine Monophosphate” (Frontiers in Physiology, 2022).

Tests used:
PDE5 = biological target: T1, PDE5 (Homo sapiens, UniProt O76074); experiment: Phosphodiesterase assay: inhibition of cGMP hydrolysis by recombinant PDE5; type: biochemical; conditions: for IC50: 5 µM cGMP, 30 min; for Ki: Cheng-Prusoff
T1 construct: purchased Sigma-Aldrich, St. Louis, United States
Experimental: The study drugs were tested upon their ability to hinder cAMP and cGMP hydrolysis by inhibiting PDE3 and PDE5 respectively. Either 5 µM cAMP or cGMP (Sigma-Aldrich, St. Louis, MO, United States) were used as substrates for the enzymes. The reaction was initiated by adding PDE to the assay solution in designated Eppendorf tubes, containing fresh incubation buffer (10 mM Tris, 8.2 mM Propionic acid, 3 mM Magnesium acetate, 1.5 mM EGTA and 0.5 mg/ml BSA, 0.2 mM DTT) selected substrate (cAMP or cGMP) and inhibitor. The reaction was initiated by adding 0.016 units/µl incubate of PDE3 (Abcam, Cambridge, United Kingdom), or 0.022 units/µl incubate of PDE5 (Sigma-Aldrich, St. Louis, United States). Control samples were free of drug and were either with or without PDE. The incubation time was 30 min in the selected temperature. Reaction was stopped by adding 99.9% methanol to the solutions. Internal standards of cGMP-13C5, cAMP-13C5, AMP-13C5 (Toronto Research Chemicals Inc., Ontario, Canada) and GMP-15N5 (Sigma-Aldrich, St. Louis, MO, United States) were added to each sample, before MS analysis.
Liquid chromatography tandem mass spectrometry (LC-MS) was used to assess concentrations of the inhibitors for experiments performed to determine intracellular access of these drugs, as well as to quantify levels of cAMP/AMP and cGMP/GMP for the PDE3-and PDE5-inhibition plots. Internal standards were used, as described previously.
IC50 and Ki values were calculated for each of the drugs, both for their ability to inhibit cAMP- and cGMP- efflux, as well as PDE3 and PDE5 activity. IC50 values were derived according to [Chou (1976)], and Ki values according to [Cheng and Prusoff (1973)]. Inhibition curves were created accordingly, both with and without adjustment for normothermic control.

erythrocytes = experiment: Intracellular access of the drugs in erythrocytes (LC-MS); type: in vitro ADME, human; conditions: 30 min incubation, milrinone 10 µM, amrinone 100 µM, levosimendan 1 µM
Experimental: Fresh (<24 h) EDTA blood from healthy donors (n = 18) was obtained and washed with Krebs-Ringer-Phosphate-Buffer containing glucose (KRPB/G, pH 7.4) and centrifuged (10 min, 1,000 g) three consecutive times. Plasma and buffy coat were removed. KRPB/G was added to the cell solution to bring it to the ratio 1:2.5. Hematocrit (Hct) was measured and adjusted with additional buffer to reach 0.44, in order to give the final Hct of 0.40 in the incubation solution. […] The reaction was stopped by placing the test tubes on ice and adding 4 ml of ice cold KRFB/G. The samples were subsequently centrifugated (5 min, 600 g), then washed with KRFB/G once more and centrifugation was repeated twice. 50 µl of the remaining red blood cell suspension was transferred to Eppendorf tubes. 50 µl 500 nM IS-Milrinone-d3 was added as an internal standard (TLC Pharmaceutical Standards Ltd.). 200 µl ZnSO4 was added to each test sample, to induce lysis of the cells, and mixed in a vortex mixer. 30 µl of the samples were used for measurement of protein concentration, the rest was mixed with 500 µl acetonitrile and centrifugated (2 min, 13400 g). Finally, 100 µl of the solution was collected for analysis using mass spectrometry (MS).
Liquid chromatography tandem mass spectrometry (LC-MS) was used to assess concentrations of the inhibitors for experiments performed to determine intracellular access of these drugs, as well as to quantify levels of cAMP/AMP and cGMP/GMP for the PDE3-and PDE5-inhibition plots. Internal standards were used, as described previously. There was a linearity from 0.2 nM to at least 2000 nM (r^2 > 0.998) for cAMP, AMP, and cGMP. For GMP, linearity was present from 2 nM to at least 2000 nM (r^2 > 0.998). Concerning PDE3-inhibitors, the linearity was found at 10 nM to at least 5,000 nM (r^2 > 0.99). Lower limit of quantification (LLOQ) was 0.2 for cAMP, cGMP, and AMP, 2 nM for GMP and 10 nM for PDE3-inhibitors (2 µl injection volume).
Intracellular concentrations of drugs were adjusted for protein concentrations in each sample. The total incubation concentrations were also adjusted for protein concentrations to evaluate the degree of access in percentage. Statistical analysis was performed using one-way ANOVA with Holm-Sidak multiple comparisons post hoc test at each temperature. ANOVA on ranks with Dunn post hoc test was used when the results were not normally distributed. The results are presented as means ± standard error of mean (SEM). p-values < 0.05 were considered significant results. Degrees of freedom (dF) is given as between group values. SigmaPlot 14.0 (Systat Software, San Jose, CA, United States) was used for all analysis, as well as creating the graphs.

In the case of `Nc1cc(-c2ccncc2)c[nH]c1=O` [Amrinone], the IC50 (PDE5; 20°C) is reported as 105 ± 8.04 µM, the Ki (PDE5; 20°C) is reported as 26.7 ± 2.04 µM and the IC50 (PDE5; 24°C) is reported as 99.1 ± 4.2 µM. It also gave a Ki (PDE5; 24°C) of 25.1 ± 1.07 µM, an IC50 (PDE5; 28°C) of 95 ± 7.29 µM and a Ki (PDE5; 28°C) of 24.1 ± 1.85 µM. For the same compound, the IC50 (PDE5; 32°C) was 84.5 ± 5.94 µM, the Ki (PDE5; 32°C) was 21.5 ± 1.51 µM and the IC50 (PDE5; 34°C) was 91.9 ± 3.65 µM. For the same compound, the Ki (PDE5; 34°C) was 23.3 ± 0.93 µM, the IC50 (PDE5; 37°C) was 110 ± 12.8 µM and the Ki (PDE5; 37°C) was 27.8 ± 3.25 µM. For the same compound, the “Intracellular access, % of drug concentration per gram protein in the incubation solution” value (erythrocytes; 28°C) was 1.66 ± 0.216% and the “Intracellular access, % of drug concentration per gram protein in the incubation solution” value (erythrocytes; 34°C) was 2.303 ± 0.284%.
Compound `C[C@@H]1CC(=O)NN=C1c1ccc(NN=C(C#N)C#N)cc1` [Levosimendan] has an IC50 (PDE5; 20°C) of 157 ± 27.5 µM, a Ki (PDE5; 20°C) of 39.9 ± 6.97 µM and an IC50 (PDE5; 24°C) of 148 ± 26.1 µM. For the same compound, the Ki (PDE5; 24°C) was 37.6 ± 6.63 µM, the IC50 (PDE5; 28°C) was 183 ± 23 µM and the Ki (PDE5; 28°C) was 46.4 ± 5.85 µM. It also gave an IC50 (PDE5; 32°C) of 162 ± 22.5 µM, a Ki (PDE5; 32°C) of 41.2 ± 5.71 µM and an IC50 (PDE5; 34°C) of 150 ± 13.5 µM. For the same compound, the Ki (PDE5; 34°C) was 38 ± 3.41 µM, the IC50 (PDE5; 37°C) was 155 ± 4.74 µM and the Ki (PDE5; 37°C) was 39.2 ± 1.2 µM. For the same compound, the “Intracellular access, % of drug concentration per gram protein in the incubation solution” value (erythrocytes; 28°C) was 18.29 ± 3.122% and the “Intracellular access, % of drug concentration per gram protein in the incubation solution” value (erythrocytes; 34°C) was 25.06 ± 5.289%.
